# Test results taken from the supplement of paper PMC10307832.
# Assays:
# Test in all cases: relative viability (nuclei count vs DMSO), 5 days (fraction); higher = more cells survive
# NCI-H1793 = system: NCI-H1793
# How it was run: (§1)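 Lung cancer cell lines, seeded in 1536-well plates, were treated the following day by pin tool with a single drug or with five library-drug doses (not always all listed) in √10 steps on top of a fixed anchor-drug dose. Cells were fixed and nuclei stained in one step after 5 days, and nuclei were counted. Relative viability is the nuclei count for treated wells divided by that for vehicle wells, reported as medians of duplicate plates.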
# LC-2-ad = system: LC-2-ad
# How it was run: as §1
# CAL-12T = system: CAL-12T
# How it was run: as §1
# NCI-H460 = system: NCI-H460
# How it was run: as §1
# LOU-NH91 = system: LOU-NH91
# How it was run: as §1
# UMC-11 = system: UMC-11
# How it was run: as §1
# ABC-1 = system: ABC-1
# How it was run: as §1
# NCI-H3122 = system: NCI-H3122
# How it was run: as §1
# NCI-H1651 = system: NCI-H1651
# How it was run: as §1
# NCI-H1944 = system: NCI-H1944
# How it was run: as §1
# HCC-78 = system: HCC-78
# How it was run: as §1
# NCI-H2405 = system: NCI-H2405
# How it was run: as §1
# HCC-366 = system: HCC-366
# How it was run: as §1
# NCI-H2170 = system: NCI-H2170
# How it was run: as §1
# NCI-H2228 = system: NCI-H2228
# How it was run: as §1
# LU99A = system: LU99A
# How it was run: as §1
# NCI-H1395 = system: NCI-H1395
# How it was run: as §1
# PC-3 [JPC-3] = system: PC-3 [JPC-3]
# How it was run: as §1
# NCI-H1755 = system: NCI-H1755
# How it was run: as §1
# NCI-H2087 = system: NCI-H2087
# How it was run: as §1
# RERF-LC-KJ = system: RERF-LC-KJ
# How it was run: as §1
smiles,measurement,setting,value
Cc1sc2c(c1C)C(c1ccc(Cl)cc1)=N[C@@H](CC(=O)OC(C)(C)C)c1nnc(C)n1-2 [JQ1] + CS(=O)(=O)CCNCc1ccc(-c2ccc3ncnc(Nc4ccc(OCc5cccc(F)c5)c(Cl)c4)c3c2)o1 [Lapatinib] (partner 2 µM),relative viability,NCI-H1793; first compound 0.04 µM,0.617
same,relative viability,NCI-H1793; first compound 0.1265 µM,0.776
same,relative viability,NCI-H1793; first compound 0.4 µM,0.805
same,relative viability,NCI-H1793; first compound 1.265 µM,0.652
same,relative viability,NCI-H1793; first compound 4 µM,0.576
same,relative viability,LC-2-ad; first compound 0.04 µM,0.92
same,relative viability,LC-2-ad; first compound 0.1265 µM,0.436
same,relative viability,LC-2-ad; first compound 0.4 µM,0.409
same,relative viability,LC-2-ad; first compound 1.265 µM,0.158
same,relative viability,LC-2-ad; first compound 4 µM,0.155
same,relative viability,CAL-12T; first compound 0.04 µM,0.748
same,relative viability,CAL-12T; first compound 0.4 µM,0.541
same,relative viability,CAL-12T; first compound 1.265 µM,0.383
same,relative viability,CAL-12T; first compound 4 µM,0.463
same,relative viability,NCI-H460; first compound 0.04 µM,0.887
same,relative viability,NCI-H460; first compound 0.1265 µM,0.465
same,relative viability,NCI-H460; first compound 0.4 µM,0.536
same,relative viability,NCI-H460; first compound 1.265 µM,0.217
same,relative viability,NCI-H460; first compound 4 µM,0.169
same,relative viability,LOU-NH91; first compound 0.04 µM,0.787
same,relative viability,LOU-NH91; first compound 0.1265 µM,0.679
same,relative viability,LOU-NH91; first compound 0.4 µM,0.624
same,relative viability,LOU-NH91; first compound 1.265 µM,0.501
same,relative viability,LOU-NH91; first compound 4 µM,0.392
same,relative viability,UMC-11; first compound 0.04 µM,0.876
same,relative viability,UMC-11; first compound 0.1265 µM,0.757
same,relative viability,UMC-11; first compound 0.4 µM,0.419
same,relative viability,UMC-11; first compound 1.265 µM,0.255
same,relative viability,UMC-11; first compound 4 µM,0.271
same,relative viability,ABC-1; first compound 0.04 µM,1.11
same,relative viability,ABC-1; first compound 0.1265 µM,0.82
same,relative viability,ABC-1; first compound 0.4 µM,1.04
same,relative viability,ABC-1; first compound 1.265 µM,0.992
same,relative viability,ABC-1; first compound 4 µM,0.727
same,relative viability,NCI-H3122; first compound 0.04 µM,0.996
same,relative viability,NCI-H3122; first compound 0.1265 µM,0.974
same,relative viability,NCI-H3122; first compound 0.4 µM,0.981
same,relative viability,NCI-H3122; first compound 1.265 µM,1.02
same,relative viability,NCI-H3122; first compound 4 µM,0.876
same,relative viability,NCI-H1651; first compound 0.04 µM,0.656
same,relative viability,NCI-H1651; first compound 0.1265 µM,0.706
same,relative viability,NCI-H1651; first compound 0.4 µM,0.481
same,relative viability,NCI-H1651; first compound 1.265 µM,0.365
same,relative viability,NCI-H1651; first compound 4 µM,0.408
same,relative viability,NCI-H1944; first compound 0.04 µM,0.79
same,relative viability,NCI-H1944; first compound 0.1265 µM,0.543
same,relative viability,NCI-H1944; first compound 0.4 µM,0.614
same,relative viability,NCI-H1944; first compound 1.265 µM,0.584
same,relative viability,NCI-H1944; first compound 4 µM,0.454
same,relative viability,HCC-78; first compound 0.04 µM,0.861
same,relative viability,HCC-78; first compound 0.1265 µM,0.53
same,relative viability,HCC-78; first compound 0.4 µM,0.493
same,relative viability,HCC-78; first compound 1.265 µM,0.391
same,relative viability,HCC-78; first compound 4 µM,0.28
same,relative viability,NCI-H2405; first compound 0.04 µM,1.19
same,relative viability,NCI-H2405; first compound 0.4 µM,1.12
same,relative viability,NCI-H2405; first compound 1.265 µM,0.587
same,relative viability,NCI-H2405; first compound 4 µM,0.485
same,relative viability,HCC-366; first compound 0.04 µM,1.02
same,relative viability,HCC-366; first compound 0.4 µM,0.877
same,relative viability,HCC-366; first compound 1.265 µM,0.461
same,relative viability,HCC-366; first compound 4 µM,0.472
same,relative viability,NCI-H2170; first compound 0.04 µM,0.258
same,relative viability,NCI-H2170; first compound 0.1265 µM,0.252
same,relative viability,NCI-H2170; first compound 0.4 µM,0.262
same,relative viability,NCI-H2170; first compound 1.265 µM,0.229
same,relative viability,NCI-H2170; first compound 4 µM,0.254
same,relative viability,NCI-H2228; first compound 0.04 µM,0.902
same,relative viability,NCI-H2228; first compound 0.1265 µM,0.876
same,relative viability,NCI-H2228; first compound 0.4 µM,0.751
same,relative viability,NCI-H2228; first compound 1.265 µM,0.374
same,relative viability,NCI-H2228; first compound 4 µM,0.327
same,relative viability,LU99A; first compound 0.04 µM,1.14
same,relative viability,LU99A; first compound 0.1265 µM,0.933
same,relative viability,LU99A; first compound 0.4 µM,0.902
same,relative viability,LU99A; first compound 1.265 µM,0.316
same,relative viability,LU99A; first compound 4 µM,0.217
same,relative viability,NCI-H1395; first compound 0.04 µM,0.931
same,relative viability,NCI-H1395; first compound 0.1265 µM,0.733
same,relative viability,NCI-H1395; first compound 0.4 µM,0.935
same,relative viability,NCI-H1395; first compound 1.265 µM,0.492
same,relative viability,NCI-H1395; first compound 4 µM,0.487
same,relative viability,PC-3 [JPC-3]; first compound 0.04 µM,0.488
same,relative viability,PC-3 [JPC-3]; first compound 0.1265 µM,0.529
same,relative viability,PC-3 [JPC-3]; first compound 0.4 µM,0.432
same,relative viability,PC-3 [JPC-3]; first compound 1.265 µM,0.412
same,relative viability,PC-3 [JPC-3]; first compound 4 µM,0.411
same,relative viability,NCI-H1755; first compound 0.04 µM,1.06
same,relative viability,NCI-H1755; first compound 0.1265 µM,0.735
same,relative viability,NCI-H1755; first compound 0.4 µM,1.05
same,relative viability,NCI-H1755; first compound 1.265 µM,0.853
same,relative viability,NCI-H1755; first compound 4 µM,0.607
same,relative viability,NCI-H2087; first compound 0.04 µM,1.12
same,relative viability,NCI-H2087; first compound 0.4 µM,0.904
same,relative viability,NCI-H2087; first compound 1.265 µM,0.786
same,relative viability,NCI-H2087; first compound 4 µM,0.506
same,relative viability,RERF-LC-KJ; first compound 0.04 µM,0.807
same,relative viability,RERF-LC-KJ; first compound 0.1265 µM,0.856
same,relative viability,RERF-LC-KJ; first compound 0.4 µM,0.89
same,relative viability,RERF-LC-KJ; first compound 1.265 µM,0.781
same,relative viability,RERF-LC-KJ; first compound 4 µM,0.595
